# Legend:
# IL-12 (p70) = assay: Biomarker study in RA subjects: serum IL-12, Luminex 18-Plex; type: in vivo, human; conditions: observed case
# Procedure: (§1) Double-blind, placebo-controlled add on study in subjects with moderately to severely active RA who have an inadequate response to MTX (oral or parenteral).
# (§2) 595 subjects randomized to one of 6 dose regimens of Compound 1 (dosed as a [Compound 1:HCl:3H2O]) (3 dose levels administered either once or twice daily) or placebo on top of each subject's stable dose of MTX.
# (§3) Compound 1 (dosed as a [Compound 1:HCl:3H2O]) is dosed for twelve weeks once daily (q.d.) (50 mg, 100 mg or 200 mg) or twice daily (b.i.d.) (25 mg, 50 mg or 100 mg); or placebo.
# (§4) 18 parameters from human serum samples (GM-CSF, IFNγ, IL-1β, IL-2, IL-4, IL-5, IL-6, IL-7, IL-8, IL-10, IL-12 (p70), IL-13, IL-17A, IL-21, IL-23, MIP-1α, MIP-1β and TNF-α) are analyzed on a Luminex Plateform (BioPlex® L200) using a Luminex 18-Plex Kit (Millipore: HSTCMAG-28SK).
# (§5) Coupled beads react with the sample containing the biomarker of interest. […] Phycoerythrin (PE) serves as a fluorescent indicator.
# (§6) The concentration of bead bound analyte is proportional to the MFI (Median Fluorescent Intensity) and back-calculated from interpolation with the calibration curve fitted with a 4 or 5 parameters logistic (4PL or 5PL) regression model selected during method pre-validation.
# (§7) Treatment effect was assessed using an ANCOVA model on the changes from baseline, with factors: treatment, baseline value of the PD marker, geographical region and previous use of biologics.
# [1] = cited from earlier work
# IL-21 = assay: Biomarker study in RA subjects: serum IL-21, Luminex 18-Plex; type: in vivo, human; conditions: observed case
# Procedure: as §1, §2, §3, §4, §5, §6, §7
# IL-4 = assay: Biomarker study in RA subjects: serum IL-4, Luminex 18-Plex; type: in vivo, human; conditions: observed case
# Procedure: as §1, §2, §3, §4, §5, §6, §7
# IL-8 = assay: Biomarker study in RA subjects: serum IL-8, Luminex 18-Plex; type: in vivo, human; conditions: observed case
# Procedure: as §1, §2, §3, §4, §5, §6, §7
# IL-5 = assay: Biomarker study in RA subjects: serum IL-5, Luminex 18-Plex; type: in vivo, human; conditions: observed case
# Procedure: as §1, §2, §3, §4, §5, §6, §7
# TNF-α = assay: Biomarker study in RA subjects: serum TNF-α, Luminex 18-Plex; type: in vivo, human; conditions: observed case
# Procedure: as §1, §2, §3, §4, §5, §6, §7
# IL-6 = assay: Biomarker study in RA subjects: serum IL-6, Luminex 18-Plex; type: in vivo, human; conditions: observed case
# Procedure: as §1, §2, §3, §4, §5, §6, §7
# [2] = 50 mg bid, Week 4, N = 73, RA subjects on MTX
# [3] = 50 mg bid, Week 12, N = 73, RA subjects on MTX
# [4] = 100 mg bid, Week 4, N = 79, RA subjects on MTX
# [5] = 100 mg bid, Week 12, N = 79, RA subjects on MTX
# [6] = 100 mg qd, Week 4, N = 68, RA subjects on MTX
# [7] = 100 mg qd, Week 12, N = 68, RA subjects on MTX
# [8] = 200 mg qd, Week 4, N = 75, RA subjects on MTX
# [9] = 200 mg qd, Week 12, N = 75, RA subjects on MTX
structure (smiles),measurement,setting,value
"O=C(Nc1nc2cccc(-c3ccc(CN4CCS(=O)(=O)CC4)cc3)n2n1)C1CC1 [Compound 1, cyclopropanecarboxylic acid {5-[4-(1,1-dioxo-thiomorpholin-4-ylmethyl)-phenyl]-[1,2,4]triazolo[1,5-a]pyridin-2yl}-amide]",IL-12 Mean change from baseline at Week 4,IL-12 (p70); [2],-1.9 pg/mL
same,IL-12 Mean change from baseline at Week 12,IL-12 (p70); [3],-2.3 pg/mL
same,IL-12 Mean change from baseline at Week 4,IL-12 (p70); [4],-2.3 pg/mL
same,IL-12 Mean change from baseline at Week 12,IL-12 (p70); [5],-3.9 pg/mL
same,IL-12 Mean change from baseline at Week 4,IL-12 (p70); [6],-0.2 pg/mL
same,IL-12 Mean change from baseline at Week 12,IL-12 (p70); [7],-1.2 pg/mL
same,IL-12 Mean change from baseline at Week 4,IL-12 (p70); [8],-1.7 pg/mL
same,IL-12 Mean change from baseline at Week 12,IL-12 (p70); [9],20.5 pg/mL
same,safety profile,"[1]; in particular regarding anemia, lymphocytes, neutrophils, hemoglobin",remarkable safety profile
same,efficacy in phase II,"[1]; rheumatoid arthritis, inflammatory bowel diseases, in particular Crohn's disease",remarkable efficacy
same,IL-21 Mean change from baseline at Week 4,IL-21; [2],-0.1 pg/mL
same,IL-21 Mean change from baseline at Week 12,IL-21; [3],-1.6 pg/mL
same,IL-21 Mean change from baseline at Week 4,IL-21; [4],-1.6 pg/mL
same,IL-21 Mean change from baseline at Week 12,IL-21; [5],-2.8 pg/mL
same,IL-21 Mean change from baseline at Week 4,IL-21; [6],-0.3 pg/mL
same,IL-21 Mean change from baseline at Week 12,IL-21; [7],0.5 pg/mL
same,IL-21 Mean change from baseline at Week 4,IL-21; [8],-1.4 pg/mL
same,IL-21 Mean change from baseline at Week 12,IL-21; [9],-2.3 pg/mL
same,IL-4 Mean change from baseline at Week 4,IL-4; [2],-0.3 pg/mL
same,IL-4 Mean change from baseline at Week 12,IL-4; [3],-2.1 pg/mL
same,IL-4 Mean change from baseline at Week 4,IL-4; [4],-2.7 pg/mL
same,IL-4 Mean change from baseline at Week 12,IL-4; [5],-2.7 pg/mL
same,IL-4 Mean change from baseline at Week 4,IL-4; [6],0.8 pg/mL
same,IL-4 Mean change from baseline at Week 12,IL-4; [7],-1.6 pg/mL
same,IL-4 Mean change from baseline at Week 4,IL-4; [8],0.2 pg/mL
same,IL-4 Mean change from baseline at Week 12,IL-4; [9],-2.5 pg/mL
same,IL-8 Mean change from baseline at Week 4,IL-8; [2],2.3 pg/mL
same,IL-8 Mean change from baseline at Week 12,IL-8; [3],6.9 pg/mL
same,IL-8 Mean change from baseline at Week 4,IL-8; [4],-1.8 pg/mL
same,IL-8 Mean change from baseline at Week 12,IL-8; [5],2.4 pg/mL
same,IL-8 Mean change from baseline at Week 4,IL-8; [6],4.1 pg/mL
same,IL-8 Mean change from baseline at Week 12,IL-8; [7],0.7 pg/mL
same,IL-8 Mean change from baseline at Week 4,IL-8; [8],-2.0 pg/mL
same,IL-8 Mean change from baseline at Week 12,IL-8; [9],-1.6 pg/mL
same,IL-5 Mean change from baseline at Week 4,IL-5; [2],-18.2 pg/mL
same,IL-5 Mean change from baseline at Week 12,IL-5; [3],-18.1 pg/mL
same,IL-5 Mean change from baseline at Week 4,IL-5; [4],-0.8 pg/mL
same,IL-5 Mean change from baseline at Week 12,IL-5; [5],-1.5 pg/mL
same,IL-5 Mean change from baseline at Week 4,IL-5; [6],-0.2 pg/mL
same,IL-5 Mean change from baseline at Week 12,IL-5; [7],-0.7 pg/mL
same,IL-5 Mean change from baseline at Week 4,IL-5; [8],0.1 pg/mL
same,IL-5 Mean change from baseline at Week 12,IL-5; [9],0.0 pg/mL
same,TNFα Mean change from baseline at Week 4,TNF-α; [2],-0.2 pg/mL
same,TNFα Mean change from baseline at Week 12,TNF-α; [3],0.3 pg/mL
same,TNFα Mean change from baseline at Week 4,TNF-α; [4],-1.7 pg/mL
same,TNFα Mean change from baseline at Week 12,TNF-α; [5],-2.2 pg/mL
same,TNFα Mean change from baseline at Week 4,TNF-α; [6],1.0 pg/mL
same,TNFα Mean change from baseline at Week 12,TNF-α; [7],-1.0 pg/mL
same,TNFα Mean change from baseline at Week 4,TNF-α; [8],0.0 pg/mL
same,TNFα Mean change from baseline at Week 12,TNF-α; [9],-1.2 pg/mL
same,IL-6 Mean change from baseline at Week 4,IL-6; [2],-4.2 pg/mL
same,IL-6 Mean change from baseline at Week 12,IL-6; [3],-6.0 pg/mL
same,IL-6 Mean change from baseline at Week 4,IL-6; [4],-11.0 pg/mL

# — patent US20190314382A1, “COMPOUNDS AND PHARMACEUTICAL COMPOSITIONS THEREOF FOR THE TREATMENT OF INFLAMMATORY DISEASES” (Galapagos NV, priority 2016, published 2019)
